Two molecules from patent US9133235B2, “Macrocyclic antagonists of the motilin receptor for treatment of gastrointestinal dysmotility disorders” (Ocera Therapeutics, Inc., priority 2006, dated 2015) can be followed below.

Common to all, as to format: in vitro ADME
For data set [1], the target named is T1, CYP3A4 (Homo sapiens, UniProt P08684).
T1 construct: purchased BD Gentest, Becton-Dickinson (Supersomes); host or cells: insect cells (microsomes)
As to the kind of experiment: Cytochrome P450 inhibition, CYP3A4. The note with it: Supersomes. The text has this:
(§1) F. Assay for Cytochrome P450 Inhibition
(§2) Cytochrome P450 enzymes are implicated in the phase I metabolism of drugs. The majority of drug-drug interactions are metabolism-based and, moreover, these interactions typically involve inhibition of cytochrome P450s. Six CYP450 enzymes (CYP1A2, CYP2C8, CYP2C9, CYP2C19, CYP2D6 and CYP3A4) appear to be commonly responsible for the metabolism of most drugs and the associated drug-drug interactions. Assays to determine the binding of compounds of the invention to the various metabolically important isoforms of cytochrome P450 metabolizing enzymes are commercially available, for example NoAb BioDiscoveries (Mississaugua, ON, Canada) and Absorption Systems (Exton, Pa., USA). As well, a number of appropriate methods have been described or reviewed in the literature. (White, R. E. Ann. Rev. Pharmacol. Toxicol. 2000, 40, 133-157; Li, A. P. Drug. Disc. Today 2001, 6, 357-366; Turpeinen, M.; Korhonen, L. E. Tolonen, A.; et al. Eur. J. Pharm. Sci. 2006, 29, 130-138.)
(§3) The concentration of the inhibitor or test compound that inhibited metabolite formation by 50% (IC50) was calculated by non-linear regression analysis of the % inhibition vs. log concentration (M) curve.

Data set [2] concerns the target T2, CYP1A2 (Homo sapiens, UniProt P05177).
T2 construct: purchased BD Gentest, Becton-Dickinson (Supersomes); host or cells: insect cells (microsomes)
T2 sequence (P05177 1-516): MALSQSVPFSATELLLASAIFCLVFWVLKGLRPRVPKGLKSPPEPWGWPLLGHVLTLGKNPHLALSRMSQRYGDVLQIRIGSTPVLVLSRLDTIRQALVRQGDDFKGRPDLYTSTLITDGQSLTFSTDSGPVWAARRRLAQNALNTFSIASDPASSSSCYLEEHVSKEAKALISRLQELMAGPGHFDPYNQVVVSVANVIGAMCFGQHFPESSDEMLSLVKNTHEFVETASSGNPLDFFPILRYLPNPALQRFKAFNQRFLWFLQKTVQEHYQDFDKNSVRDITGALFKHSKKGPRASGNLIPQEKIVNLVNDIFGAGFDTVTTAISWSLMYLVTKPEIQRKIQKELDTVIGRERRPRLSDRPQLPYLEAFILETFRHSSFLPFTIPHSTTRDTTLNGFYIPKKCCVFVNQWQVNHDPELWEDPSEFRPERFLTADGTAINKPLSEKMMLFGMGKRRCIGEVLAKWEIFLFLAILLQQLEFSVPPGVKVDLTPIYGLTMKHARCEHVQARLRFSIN
Kind of data set: Cytochrome P450 inhibition, CYP1A2. To be noted: Supersomes; read-out: IC50 (μM) 1A2.
Source text: as §1, §2, §3

Data set [3] addresses T3, CYP2A6 (Homo sapiens, UniProt P11509).
T3 construct: purchased BD Gentest, Becton-Dickinson (Supersomes); host or cells: insect cells (microsomes)
T3 sequence (P11509 1-494): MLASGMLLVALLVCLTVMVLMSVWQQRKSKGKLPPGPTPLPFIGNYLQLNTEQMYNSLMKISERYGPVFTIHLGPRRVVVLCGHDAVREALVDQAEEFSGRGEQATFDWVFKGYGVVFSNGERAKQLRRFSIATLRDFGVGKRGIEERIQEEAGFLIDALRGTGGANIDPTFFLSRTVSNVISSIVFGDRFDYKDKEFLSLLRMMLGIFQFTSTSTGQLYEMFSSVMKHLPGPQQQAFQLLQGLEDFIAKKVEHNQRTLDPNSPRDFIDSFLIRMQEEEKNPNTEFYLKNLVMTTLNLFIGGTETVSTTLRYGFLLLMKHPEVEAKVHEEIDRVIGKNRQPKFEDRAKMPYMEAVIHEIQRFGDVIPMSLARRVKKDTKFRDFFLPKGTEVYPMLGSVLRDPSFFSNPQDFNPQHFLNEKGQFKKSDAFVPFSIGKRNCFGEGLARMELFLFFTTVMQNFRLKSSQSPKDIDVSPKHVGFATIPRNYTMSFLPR
Kind of data set: Cytochrome P450 inhibition, CYP2A6. The note with it: Supersomes; read-out: IC50 (μM) 2A6.
Source text: as §1, §2, §3

Data set [4] has as its target T4, CYP2B6 (Homo sapiens, UniProt P20813).
T4 construct: purchased BD Gentest, Becton-Dickinson (Supersomes); host or cells: insect cells (microsomes)
T4 sequence (P20813 1-491): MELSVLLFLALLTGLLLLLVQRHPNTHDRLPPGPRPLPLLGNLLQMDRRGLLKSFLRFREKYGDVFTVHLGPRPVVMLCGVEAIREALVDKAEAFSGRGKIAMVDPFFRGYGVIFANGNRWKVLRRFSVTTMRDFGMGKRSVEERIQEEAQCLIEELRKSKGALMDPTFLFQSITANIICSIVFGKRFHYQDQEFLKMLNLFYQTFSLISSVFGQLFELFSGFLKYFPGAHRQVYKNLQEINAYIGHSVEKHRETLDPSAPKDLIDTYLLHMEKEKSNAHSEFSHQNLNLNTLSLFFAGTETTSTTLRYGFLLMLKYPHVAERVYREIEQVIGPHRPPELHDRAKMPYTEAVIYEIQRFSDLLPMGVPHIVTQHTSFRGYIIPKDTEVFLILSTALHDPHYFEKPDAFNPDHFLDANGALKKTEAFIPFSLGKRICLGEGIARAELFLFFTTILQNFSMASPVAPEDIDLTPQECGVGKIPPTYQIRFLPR
As to the kind of experiment: Cytochrome P450 inhibition, CYP2B6. The note with it: Supersomes; read-out: IC50 (μM) 2B6.
Source text: as §1, §2, §3

The target of data set [5] is T5, CYP2C9 (Homo sapiens, UniProt P11712).
T5 construct: purchased BD Gentest, Becton-Dickinson (Supersomes); host or cells: insect cells (microsomes)
T5 sequence (P11712 whole entry): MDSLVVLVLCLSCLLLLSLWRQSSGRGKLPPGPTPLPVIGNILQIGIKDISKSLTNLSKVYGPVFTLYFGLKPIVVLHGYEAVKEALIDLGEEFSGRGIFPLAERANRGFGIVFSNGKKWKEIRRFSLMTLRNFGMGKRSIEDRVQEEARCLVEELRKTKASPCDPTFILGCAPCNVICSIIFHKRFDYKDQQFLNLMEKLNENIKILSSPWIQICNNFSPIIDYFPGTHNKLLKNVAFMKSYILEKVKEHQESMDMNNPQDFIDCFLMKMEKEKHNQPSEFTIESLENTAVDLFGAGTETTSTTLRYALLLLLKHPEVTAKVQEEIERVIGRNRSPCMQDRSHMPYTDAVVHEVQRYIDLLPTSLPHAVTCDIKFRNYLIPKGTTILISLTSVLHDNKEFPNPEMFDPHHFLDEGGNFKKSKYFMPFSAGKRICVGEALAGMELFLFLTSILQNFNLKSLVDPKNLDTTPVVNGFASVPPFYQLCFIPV
Kind of data set: Cytochrome P450 inhibition, CYP2C9. The note with it: Supersomes; read-out: IC50 (μM) 2C9.
Source text: as §1, §2, §3

Data set [6] deals with T6, CYP2C19 (Homo sapiens, UniProt P33261).
T6 construct: purchased BD Gentest, Becton-Dickinson (Supersomes); host or cells: insect cells (microsomes)
T6 sequence (P33261 whole entry): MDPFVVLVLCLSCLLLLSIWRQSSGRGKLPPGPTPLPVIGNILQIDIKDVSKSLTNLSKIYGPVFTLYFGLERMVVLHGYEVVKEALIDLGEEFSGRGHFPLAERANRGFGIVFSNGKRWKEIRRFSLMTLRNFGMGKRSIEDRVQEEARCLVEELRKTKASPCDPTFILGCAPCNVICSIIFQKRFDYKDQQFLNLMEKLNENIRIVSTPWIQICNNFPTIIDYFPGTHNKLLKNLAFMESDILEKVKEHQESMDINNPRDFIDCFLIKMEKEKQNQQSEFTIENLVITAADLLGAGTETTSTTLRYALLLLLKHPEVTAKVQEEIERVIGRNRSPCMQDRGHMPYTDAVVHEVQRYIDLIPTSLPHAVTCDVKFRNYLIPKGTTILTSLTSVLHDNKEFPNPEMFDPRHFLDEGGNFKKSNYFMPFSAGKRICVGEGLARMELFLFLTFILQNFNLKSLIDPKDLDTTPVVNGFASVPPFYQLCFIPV
Kind of data set: Cytochrome P450 inhibition, CYP2C19. The note with it: Supersomes; read-out: IC50 (μM) 2C19.
Source text: as §1, §2, §3

Data set [7] concerns the target T7, CYP2D6 (Homo sapiens, UniProt P10635).
T7 construct: purchased BD Gentest, Becton-Dickinson (Supersomes); host or cells: insect cells (microsomes)
As to the kind of experiment: Cytochrome P450 inhibition, CYP2D6. To be noted: Supersomes; read-out: IC50 (μM) 2D6.
Source text: as §1, §2, §3

Data set [8] deals with T8, CYP2E1 (Homo sapiens, UniProt P05181).
T8 construct: purchased BD Gentest, Becton-Dickinson (Supersomes); host or cells: insect cells (microsomes)
T8 sequence (P05181 whole entry): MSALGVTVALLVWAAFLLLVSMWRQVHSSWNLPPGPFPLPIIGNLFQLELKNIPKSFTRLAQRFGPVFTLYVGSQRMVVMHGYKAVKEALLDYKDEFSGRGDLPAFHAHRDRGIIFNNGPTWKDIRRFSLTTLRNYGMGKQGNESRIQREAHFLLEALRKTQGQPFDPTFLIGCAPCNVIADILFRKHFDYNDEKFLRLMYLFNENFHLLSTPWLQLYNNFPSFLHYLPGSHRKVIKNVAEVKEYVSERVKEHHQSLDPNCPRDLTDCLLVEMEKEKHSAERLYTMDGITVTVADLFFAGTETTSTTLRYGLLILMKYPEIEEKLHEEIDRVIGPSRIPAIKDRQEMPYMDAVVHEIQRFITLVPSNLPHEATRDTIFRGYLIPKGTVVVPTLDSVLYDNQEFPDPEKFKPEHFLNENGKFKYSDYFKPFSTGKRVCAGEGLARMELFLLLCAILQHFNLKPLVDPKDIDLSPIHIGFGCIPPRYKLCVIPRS
As to the kind of experiment: Cytochrome P450 inhibition, CYP2E1. The note with it: Supersomes; read-out: IC50 (μM) 2E1.
Source text: as §1, §2, §3

Where [9] appears, read: substrate BFC, read-out: IC50 (μM) 3A4 (BFC).
The mark [10] stands for this setting: substrate BQ, read-out: IC50 (μM) 3A4 (BQ).

Where two headings read alike, the source gives them in different places.

T1 sequence (P08684 whole entry): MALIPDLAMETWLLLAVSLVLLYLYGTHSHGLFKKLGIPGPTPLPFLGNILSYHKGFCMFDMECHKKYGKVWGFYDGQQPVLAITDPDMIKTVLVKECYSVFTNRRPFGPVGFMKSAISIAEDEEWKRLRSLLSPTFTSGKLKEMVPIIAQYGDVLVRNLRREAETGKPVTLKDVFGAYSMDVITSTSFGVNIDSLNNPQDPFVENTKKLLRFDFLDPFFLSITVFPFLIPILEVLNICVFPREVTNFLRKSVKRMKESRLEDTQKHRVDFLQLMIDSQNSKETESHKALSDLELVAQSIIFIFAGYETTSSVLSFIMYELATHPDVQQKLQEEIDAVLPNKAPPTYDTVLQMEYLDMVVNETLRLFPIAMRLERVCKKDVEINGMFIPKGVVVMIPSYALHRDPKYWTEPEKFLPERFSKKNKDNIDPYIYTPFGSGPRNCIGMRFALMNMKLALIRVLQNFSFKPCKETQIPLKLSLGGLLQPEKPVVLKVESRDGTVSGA
T7 sequence (P10635 whole entry): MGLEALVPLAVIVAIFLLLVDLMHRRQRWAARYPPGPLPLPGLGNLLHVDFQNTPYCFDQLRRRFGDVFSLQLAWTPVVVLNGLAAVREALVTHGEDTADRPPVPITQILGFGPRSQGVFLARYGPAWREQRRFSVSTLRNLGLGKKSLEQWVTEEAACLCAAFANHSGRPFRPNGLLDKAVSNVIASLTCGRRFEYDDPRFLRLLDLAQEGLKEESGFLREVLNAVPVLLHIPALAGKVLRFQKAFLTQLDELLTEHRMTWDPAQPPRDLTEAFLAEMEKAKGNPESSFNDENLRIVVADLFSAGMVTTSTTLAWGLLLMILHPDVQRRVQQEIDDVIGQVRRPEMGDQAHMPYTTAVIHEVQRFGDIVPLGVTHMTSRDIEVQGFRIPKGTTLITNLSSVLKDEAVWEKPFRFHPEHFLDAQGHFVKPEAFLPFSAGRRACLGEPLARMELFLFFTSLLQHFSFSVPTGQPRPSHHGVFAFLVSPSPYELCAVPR

A word on the IC50: it is the concentration needed to halve the response being measured. For the molecule `CCC[C@@H]1NC(=O)[C@@H](C(C)C)NC(=O)[C@@H](Cc2cccc(F)c2)N[C@@H](C)COc2ccccc2CCCNC1=O` [Compound 551], the IC50 is 2.37 µM in data set [1] (setting [9]); 10.4 µM in data set [1] (setting [10]); greater than 100 µM in data set [2]; greater than 100 µM in data set [3]; greater than 100 µM in data set [4]; 26.9 µM in data set [5]. The results for the IC50 in data set [6], in data set [7] and in data set [8] were 37 µM, 30.1 µM and greater than 100 µM, respectively.

Consider `CCC[C@@H]1NC(=O)[C@@H](C(C)C)NC(=O)[C@@H](Cc2ccc(O)c(C(C)(C)C)c2)NCCOc2ccccc2CCCNC1=O` [Compound 553], for which the IC50 is 0.0192 µM in data set [1] (setting [9]); 3.48 µM in data set [1] (setting [10]); greater than 100 µM in data set [2]; greater than 100 µM in data set [3]; greater than 100 µM in data set [4]; 44.5 µM in data set [5]. For the same molecule, the IC50 in data set [6] was greater than 100 µM; in data set [7], 80.8 µM; in data set [8] it was greater than 100 µM.
